Assay results taken from paper PMC6706138, “IL-6–HaloTag® enables live-cell plasma membrane staining, flow cytometry, functional expression, and de-orphaning of recombinant odorant receptors” (Journal of Biological Methods, 2017).

Assays:
Assay type in all cases: cell-based
[1] = molecular target: T1, OR10J5 (Homo sapiens, UniProt Q8NHC4); experiment: GloSensor cAMP luminescence; conditions: read-out: IL-6-HaloTag®-receptor / EC50
T1 construct: full coding region amplified from human genomic DNA, N-terminal IL-6-HaloTag kept, transient in NxG 108CC15 cells with RTP1S, G-alpha-olf, G-gamma-13, GloSensor-22F
T1 sequence (Q8NHC4 1-309): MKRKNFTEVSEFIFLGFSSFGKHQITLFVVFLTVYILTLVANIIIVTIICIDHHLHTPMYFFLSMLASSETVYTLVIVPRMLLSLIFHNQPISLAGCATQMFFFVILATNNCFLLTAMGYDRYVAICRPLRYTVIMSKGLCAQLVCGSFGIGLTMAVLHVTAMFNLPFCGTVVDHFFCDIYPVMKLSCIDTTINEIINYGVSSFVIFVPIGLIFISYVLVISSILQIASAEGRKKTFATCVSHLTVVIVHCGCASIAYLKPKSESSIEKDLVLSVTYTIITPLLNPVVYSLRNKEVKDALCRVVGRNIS
Source text: GloSensor cAMP luminescence on OR10J5

[2] = molecular target: T2, Olfr16 (Mus musculus, UniProt Q62007); experiment: GloSensor cAMP luminescence; conditions: read-out: IL-6-HaloTag®-receptor / EC50
T2 construct: gene Or10j5; full coding region amplified from mouse genomic DNA, N-terminal IL-6-HaloTag kept, transient in NxG 108CC15 cells with RTP1S, G-alpha-olf, G-gamma-13, GloSensor-22F
T2 sequence (Q62007 1-309): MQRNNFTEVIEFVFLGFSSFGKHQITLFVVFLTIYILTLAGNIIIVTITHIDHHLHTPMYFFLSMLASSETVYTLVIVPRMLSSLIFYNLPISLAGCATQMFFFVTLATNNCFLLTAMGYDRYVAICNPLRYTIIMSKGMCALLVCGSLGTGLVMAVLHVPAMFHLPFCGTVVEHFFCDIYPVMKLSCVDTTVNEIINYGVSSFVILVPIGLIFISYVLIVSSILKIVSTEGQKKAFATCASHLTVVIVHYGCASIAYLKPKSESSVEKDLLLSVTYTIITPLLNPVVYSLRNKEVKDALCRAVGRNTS
Source text: GloSensor cAMP luminescence on Olfr16

[3] = molecular target: T3, OR51E1 (Homo sapiens, UniProt Q8TCB6); experiment: GloSensor cAMP luminescence; conditions: read-out: IL-6-HaloTag®-receptor / EC50
T3 construct: full coding region amplified from human genomic DNA, N-terminal IL-6-HaloTag kept, transient in NxG 108CC15 cells with RTP1S, G-alpha-olf, G-gamma-13, GloSensor-22F
T3 sequence (Q8TCB6 1-318): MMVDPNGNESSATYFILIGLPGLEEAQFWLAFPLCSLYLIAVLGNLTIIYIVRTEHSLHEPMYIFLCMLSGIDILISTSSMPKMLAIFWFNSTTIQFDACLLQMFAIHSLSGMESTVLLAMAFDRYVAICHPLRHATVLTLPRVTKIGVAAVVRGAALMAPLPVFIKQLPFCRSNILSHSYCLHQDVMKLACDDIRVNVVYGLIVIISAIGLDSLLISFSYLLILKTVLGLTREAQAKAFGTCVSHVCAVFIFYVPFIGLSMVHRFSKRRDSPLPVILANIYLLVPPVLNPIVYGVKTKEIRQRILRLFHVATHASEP
Source text: GloSensor cAMP luminescence on OR51E1

[4] = molecular target: T4, OR8D1 (Homo sapiens, UniProt Q8WZ84); experiment: GloSensor cAMP luminescence
T4 construct: full coding region amplified from human genomic DNA, N-terminal IL-6-HaloTag kept, transient in NxG 108CC15 cells with RTP1S, G-alpha-olf, G-gamma-13, GloSensor-22F
T4 sequence (Q8WZ84 1-308): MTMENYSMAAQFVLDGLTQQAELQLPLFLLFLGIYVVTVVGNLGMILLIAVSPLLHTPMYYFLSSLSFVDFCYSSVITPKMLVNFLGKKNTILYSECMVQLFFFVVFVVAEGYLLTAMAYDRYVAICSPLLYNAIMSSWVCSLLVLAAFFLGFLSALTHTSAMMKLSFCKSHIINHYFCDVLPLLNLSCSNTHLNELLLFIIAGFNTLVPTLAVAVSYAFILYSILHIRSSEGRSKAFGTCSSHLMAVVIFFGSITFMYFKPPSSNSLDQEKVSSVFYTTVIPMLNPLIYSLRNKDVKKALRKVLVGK
Source text: GloSensor cAMP luminescence on OR8D1

[5] = molecular target: T5, OR1A1 (Homo sapiens, UniProt Q9P1Q5); experiment: GloSensor cAMP luminescence; conditions: read-out: IL-6-HaloTag®-receptor / EC50
T5 construct: full coding region amplified from human genomic DNA, N-terminal IL-6-HaloTag kept, transient in NxG 108CC15 cells with RTP1S, G-alpha-olf, G-gamma-13, GloSensor-22F
T5 sequence (Q9P1Q5 1-309): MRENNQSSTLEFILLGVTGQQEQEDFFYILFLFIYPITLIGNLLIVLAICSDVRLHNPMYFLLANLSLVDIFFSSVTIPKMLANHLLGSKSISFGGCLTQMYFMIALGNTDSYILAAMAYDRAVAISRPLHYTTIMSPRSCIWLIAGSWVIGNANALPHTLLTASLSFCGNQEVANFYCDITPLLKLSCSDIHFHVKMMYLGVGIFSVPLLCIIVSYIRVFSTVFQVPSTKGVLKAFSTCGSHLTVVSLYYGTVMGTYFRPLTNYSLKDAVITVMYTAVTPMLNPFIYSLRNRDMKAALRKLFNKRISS
Source text: GloSensor cAMP luminescence on OR1A1

[6] = molecular target: T6, OR2W1 (Homo sapiens, UniProt Q9Y3N9); experiment: GloSensor cAMP luminescence
T6 construct: full coding region amplified from human genomic DNA, N-terminal IL-6-HaloTag kept, transient in NxG 108CC15 cells with RTP1S, G-alpha-olf, G-gamma-13, GloSensor-22F
T6 sequence (Q9Y3N9 1-320): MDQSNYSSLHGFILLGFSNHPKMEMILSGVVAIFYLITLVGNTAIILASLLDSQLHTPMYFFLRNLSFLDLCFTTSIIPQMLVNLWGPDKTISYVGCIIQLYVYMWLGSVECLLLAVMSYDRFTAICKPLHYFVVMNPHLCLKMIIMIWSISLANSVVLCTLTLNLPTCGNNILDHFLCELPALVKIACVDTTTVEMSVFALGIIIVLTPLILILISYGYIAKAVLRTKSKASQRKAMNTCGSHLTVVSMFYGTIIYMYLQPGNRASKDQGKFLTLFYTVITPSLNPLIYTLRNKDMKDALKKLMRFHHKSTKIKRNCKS
Source text: GloSensor cAMP luminescence on OR2W1

[7] = molecular target: T5, OR1A1; experiment: GloSensor cAMP luminescence, single-concentration screen; conditions: IL-6-HaloTag construct, NxG […]CC15 cells, n = […] in duplicates, agonist
[8] = molecular target: T7, OR2M3 (Homo sapiens, UniProt Q8NG83); experiment: GloSensor cAMP luminescence; conditions: IL-6-HaloTag construct, NxG […]CC15 cells, pH […] DMSO, RTP1S/Gαolf/Gγ[…] co-transfected; agonist; read-out: IL-6-HaloTag®-receptor / EC50
T7 construct: full coding region amplified from human genomic DNA, N-terminal IL-6-HaloTag kept, transient in NxG 108CC15 cells with RTP1S, G-alpha-olf, G-gamma-13, GloSensor-22F
T7 sequence (Q8NG83 1-312): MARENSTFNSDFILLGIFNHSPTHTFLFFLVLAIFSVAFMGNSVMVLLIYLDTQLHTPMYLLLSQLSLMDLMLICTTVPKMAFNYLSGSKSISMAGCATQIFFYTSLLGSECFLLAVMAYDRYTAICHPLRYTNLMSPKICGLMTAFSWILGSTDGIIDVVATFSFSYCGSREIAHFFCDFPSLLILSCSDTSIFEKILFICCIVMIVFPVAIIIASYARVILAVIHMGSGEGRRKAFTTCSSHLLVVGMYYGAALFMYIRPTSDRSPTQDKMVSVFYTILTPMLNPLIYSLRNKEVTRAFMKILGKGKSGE
Source text: GloSensor cAMP luminescence on OR2M3

With `CC(C)(O)CCCC1=CCC(C=O)CC1` (centres unmarked) [lyral] the EC50 [1] was 16.3 ± 1.05 µM and the EC50 [2] was 34 ± 2.21 µM.
`CCCC(=O)O` [butyric acid] gave an EC50 [3] of 95.6 ± 33.4 µM.
Work on `CC1=C(O)C(=O)OC1C` (centres unmarked) [sotolone] yielded an EC50 [4] of 1.81 ± 0.19 µM.
`C=C(C)[C@@H]1CC=C(C)C(=O)C1` [(R)-(-)-carvone] gave an EC50 [5] of 7.66 ± 4.75 µM.
`C=CCOC(=O)Cc1ccccc1` [allyl phenyl acetate] was tested, and the EC50 [6] was 27 ± 1.37 µM and the “GloSensor cAMP luminescence, single-concentration screen” value [7] was “allyl phenyl acetate best activated OR1A1 and OR2W1”.
With `CCC(S)C(C)CO` (centres unmarked) [3-mercapto-2-methylpentan-1-ol] the EC50 [8] was 1.08 ± 1.16 µM.
